Laboratory results taken from the NIST ThermoML archive (doi:10.1021/je900387e).
Numbers after ± are expanded uncertainties.

Test: xn = mol fraction of the nth substance listed
Conditions: Liquid, Pycnometric method

CCCCCl [1-chlorobutane] + O=C=O
Conditions	mass density [kg/m3]
317.9 K, 9140 kPa, x1 = 0.0243	549 ± 4
317.9 K, 9200 kPa, x1 = 0.0483	689 ± 4
317.9 K, 9230 kPa, x1 = 0.0243	565 ± 4
317.9 K, 9240 kPa, x1 = 0.1488	828 ± 4
317.9 K, 9340 kPa, x1 = 0.0243	582 ± 4
317.9 K, 9350 kPa, x1 = 0.0981	799 ± 4
317.9 K, 9360 kPa, x1 = 0.0744	760 ± 4
317.9 K, 9460 kPa, x1 = 0.0243	599 ± 4
317.9 K, 9490 kPa, x1 = 0.0483	701 ± 4
317.9 K, 9580 kPa, x1 = 0.0243	615 ± 4
317.9 K, 9600 kPa, x1 = 0.0744	766 ± 4
317.9 K, 9650 kPa, x1 = 0.0981	804 ± 4
317.9 K, 9660 kPa, x1 = 0.1488	832 ± 4
317.9 K, 9740 kPa, x1 = 0.0243	630 ± 4
317.9 K, 9770 kPa, x1 = 0.0483	713 ± 4
317.9 K, 9840 kPa, x1 = 0.0243	639 ± 4
317.9 K, 9890 kPa, x1 = 0.0744	773 ± 4
317.9 K, 9950 kPa, x1 = 0.0243	647 ± 4
317.9 K, 10010 kPa, x1 = 0.0981	810 ± 4
317.9 K, 10030 kPa, x1 = 0.0243	654 ± 4
317.9 K, 10090 kPa, x1 = 0.0483	725 ± 4
317.9 K, 10090 kPa, x1 = 0.1488	836 ± 4
317.9 K, 10220 kPa, x1 = 0.0744	780 ± 4
317.9 K, 10350 kPa, x1 = 0.0483	734 ± 4
317.9 K, 10350 kPa, x1 = 0.0981	815 ± 4
317.9 K, 10560 kPa, x1 = 0.0744	787 ± 4
317.9 K, 10580 kPa, x1 = 0.1488	841 ± 4
317.9 K, 10650 kPa, x1 = 0.0483	742 ± 4
317.9 K, 10750 kPa, x1 = 0.0981	822 ± 4
317.9 K, 10940 kPa, x1 = 0.0744	794 ± 4
317.9 K, 10970 kPa, x1 = 0.0483	752 ± 4
317.9 K, 11090 kPa, x1 = 0.1488	847 ± 4
317.9 K, 11180 kPa, x1 = 0.0981	827 ± 4
317.9 K, 11340 kPa, x1 = 0.0483	761 ± 4
317.9 K, 11370 kPa, x1 = 0.0744	802 ± 4
317.9 K, 11620 kPa, x1 = 0.1488	851 ± 4
317.9 K, 11670 kPa, x1 = 0.0981	834 ± 4
317.9 K, 11740 kPa, x1 = 0.0483	770 ± 4
317.9 K, 11860 kPa, x1 = 0.0744	810 ± 4
317.9 K, 11940 kPa, x1 = 0.1488	853 ± 4
317.9 K, 12140 kPa, x1 = 0.0981	839 ± 4
317.9 K, 12220 kPa, x1 = 0.0483	780 ± 4
317.9 K, 12240 kPa, x1 = 0.1488	856 ± 4
317.9 K, 12370 kPa, x1 = 0.0744	817 ± 4
317.9 K, 12520 kPa, x1 = 0.1488	858 ± 4
317.9 K, 12690 kPa, x1 = 0.0981	846 ± 4
317.9 K, 12740 kPa, x1 = 0.0483	790 ± 4
317.9 K, 12850 kPa, x1 = 0.1488	861 ± 4
317.9 K, 12930 kPa, x1 = 0.0744	825 ± 4
317.9 K, 13140 kPa, x1 = 0.1488	863 ± 4
317.9 K, 13250 kPa, x1 = 0.0981	852 ± 4
317.9 K, 13320 kPa, x1 = 0.0483	800 ± 4
317.9 K, 13440 kPa, x1 = 0.1488	865 ± 4
317.9 K, 13510 kPa, x1 = 0.0744	833 ± 4
317.9 K, 13620 kPa, x1 = 0.0483	805 ± 4
317.9 K, 13800 kPa, x1 = 0.1488	868 ± 4
317.9 K, 13830 kPa, x1 = 0.0981	859 ± 4
317.9 K, 13950 kPa, x1 = 0.0483	811 ± 4
317.9 K, 14180 kPa, x1 = 0.0744	841 ± 4
317.9 K, 14190 kPa, x1 = 0.1488	871 ± 4
317.9 K, 14300 kPa, x1 = 0.0483	816 ± 4
317.9 K, 14480 kPa, x1 = 0.1488	873 ± 4
317.9 K, 14530 kPa, x1 = 0.0981	865 ± 4
317.9 K, 14860 kPa, x1 = 0.1488	875 ± 4
317.9 K, 14910 kPa, x1 = 0.0744	849 ± 4
317.9 K, 15220 kPa, x1 = 0.0981	872 ± 4
322.7 K, 7900 kPa, x1 = 0.1488	782 ± 4
322.7 K, 8140 kPa, x1 = 0.1488	786 ± 4
322.7 K, 8330 kPa, x1 = 0.0981	728 ± 4
322.7 K, 8380 kPa, x1 = 0.1488	789 ± 4
322.7 K, 8510 kPa, x1 = 0.0981	734 ± 4
322.7 K, 8620 kPa, x1 = 0.0243	328 ± 4
322.7 K, 8620 kPa, x1 = 0.0981	739 ± 4
322.7 K, 8630 kPa, x1 = 0.0744	669 ± 4
322.7 K, 8670 kPa, x1 = 0.1488	794 ± 4
322.7 K, 8690 kPa, x1 = 0.0243	336 ± 4
322.7 K, 8740 kPa, x1 = 0.0744	675 ± 4
322.7 K, 8750 kPa, x1 = 0.0243	343 ± 4
322.7 K, 8780 kPa, x1 = 0.0981	744 ± 4
322.7 K, 8810 kPa, x1 = 0.0243	351 ± 4
322.7 K, 8860 kPa, x1 = 0.0243	360 ± 4
322.7 K, 8860 kPa, x1 = 0.0744	683 ± 4
322.7 K, 8920 kPa, x1 = 0.0243	368 ± 4
322.7 K, 8940 kPa, x1 = 0.0981	749 ± 4
322.7 K, 8970 kPa, x1 = 0.1488	798 ± 4
